Test results from US10729693B2, “Compositions and methods for the treatment of endometriosis” (PONCE MEDICAL SCHOOL FOUNDATION, INC., priority 2018, dated 2020).

Columns and labels:
[1] = system: mineralocorticoid receptor 2 mRNA; assay: mRNA of mineralocorticoid receptor 2 within the adrenal glands; format: in vivo, rat; conditions: compared to sham group
Method: FIG. 18: mRNA of mineralocorticoid receptor 2. Within the adrenal glands of the same animals from the sham or endometriosis groups that received vehicle or antalarmin, the mRNA of the mineralocorticoid receptor 2 was measured. This receptor is in charge of binding adrenocorticotropic hormone (ACTH), which was elevated in animals that received antalarmin. The mineralocorticoid receptor mRNA expression is decreased in response to antalarmin as compared to the sham group. This could be due to a down regulation of the receptor in response to increased ACTH circulating levels. ** p<0.01.

[2] = system: CRH peptide, CRHR1 and glucocorticoid receptor (GR) in hypothalamus and hippocampus; assay: Brain immunohistochemistry (percent of area immunolabeled); format: in vivo, rat
Method: Protocols previously published (Torres-Reveron et al., 2016, 2009, 2008) were followed. Rats were perfused with 4% paraformaldehyde by aortic arch perfusion and brains were removed and stored in cryoprotectant solution (30% sucrose, 30% ethylene glycol) until further processing. Coronal tissue sections (40 μm thick) through the hypothalamus (sections 0.92 to 1.88 caudal to Bregma) and dorsal hippocampus (sections 3.8 to 4.3 caudal to Bregma), which include the amygdala were selected and incubated in antiserum raised against CRHR1 (goat polyclonal, Abcam, cat. ab59023), CRH peptide antibody (guinea pig polyclonal, Peninsula labs., cat. T-5007) or glucocorticoid receptor antibody (GR, rabbit monoclonal, Cell Signaling cat. #3660) for 48 hrs. at 4° C. Optimal working concentrations were determined for each antibody. The primary antibody was labeled with CY3 secondary antibody (1:400 Jackson ImmunoResearch, West Grove, Pa.). Images were taken at the same time and illumination (excitation) and background corrected to control for batch effects. All regions of interest were analyzed using Image J software (open access from NIH) to calculate the percent of positive immunolabeling within the region of interest. Tissue from control and experimental animals was processed together. For each animal, the two best morphologically preserved sections of each region of interest were included in the analysis.

[3] = system: endometriosis vesicles; assay: Autotransplantation rat model of endometriosis: vesicle development and morphology; format: in vivo; conditions: at 60 days
Description: Experiment 2 consisted of 51 female rats that underwent endometriosis induction (n=40) or sham surgery (n=11). From the 40 rats that underwent endometriosis induction, 20 rats received the CRHR1 antagonist antalarmin intraperitoneally (i.p.) and 20 rats received vehicle control i.p. (10% Tween 80) from days 1-7 after surgery and endometriosis was allowed to progress until day 60 after surgery. The remaining 11 rats that underwent sham surgery were left untreated until day 60 after surgery. The sham group was used as a non-endometriosis baseline comparison. Only rats with regular estrous cycles were used in the experiments as assessed by vaginal smear lavage during the 7 days prior to surgery and on the day of sacrifice. […] Therefore, the final group numbers for endometriosis quantification and behavior were: endometriosis-antalarmin=20, endometriosis-vehicle=20, sham=10. Cyclicity was not assessed during the drug administration and was only collected before treatment and the day of sacrifice. This was decided to avoid any additional stressors not related to the drug administration per se that may affect results. The estrous cycle distribution for experiments 1 and 2 can be accessed in FIG. 14.
First, endometriosis in female rats was induced by suturing uterine horn tissue next to the intestinal mesentery and allowed to progress for 7 days. After 7 days, it was determined that there was a significant increase in CRHR1 within endometriotic vesicles as compared to a normal uterus. Endometriosis was induced in a second group of rats, and further the second group of rats received consecutive doses of antalarmin of 20 milligrams per kilogram intraperitoneal (20 mg/kg, i.p.) during the first 7 days after surgery. A separate group of sham surgery rats served as controls.
Briefly, rats were anesthetized with isoflurane and four pieces of the right uterine horn were auto transplanted to 4 different blood vessels in the intestinal mesentery. The control group was sham operated animals for which the right uterine horn was massaged for 2 minutes and sutures were placed in the intestinal mesenteric area with no uterine implants. For group 1, sham or endometriosis operated rats were allowed to progress for 7 days after surgery before sacrificed. For group 2, endometriosis was allowed to progress for 60 days before sacrificing.
It was verified that the animals were deeply anesthetized. Rats were weighed, and a cytological smear taken to verify stage of the estrous cycle. The peritoneal and thoracic cavities were opened, and a blood sample was collected directly from the heart. Following this, peritoneal fluid was collected using a sterile plastic pipette. Examination was directed to the presence of endometriosis vesicles. The implants that developed into vesicles were excised from the mesentery, weighed and measured using a digital caliper. Classification of vesicles was carried out and assigned the following grades: grade 1=disappeared; grade 2=0.01-1.99 mm; grade 3=2-4.49 mm; grade 4=4.5-5.99 mm; grade 5=6.0 mm or larger. In sham animals, empty suture sites were counted and collected. In addition to the endometriosis vesicles, the adrenal glands were collected, all surrounding fatty tissue was removed, and the cleared adrenal glands were weighed. Additionally, tissues from colon and the left uterine horn were collected. All tissues were flash frozen and stored at −80° until further processing.

[4] = compared to sham, both endometriosis groups regardless of treatment
[5] = 20 mg/kg i.p. days 1-7 after surgery

In the case of `CCCCN(CC)c1nc(C)nc2c1c(C)c(C)n2-c1c(C)cc(C)cc1C` [antalarmin], the “mineralocorticoid receptor 2 mRNA expression in adrenal glands” value [1] is reported as “decreased”, the “CRHR1 immunolabeling in dentate gyrus (DG)” value [2, 4] is reported as “Large increases in CRHR1 labeling” and the “GR immunolabeling in dentate gyrus (DG)” value [2, 4] is reported as “Large increases in GR labeling”. For the same compound, the “CRH peptide immunolabeling in PVN and hippocampus” value ([2]; day 60) was “No changes in CRH peptide”, the “CRHR1 immunolabeling in CA3” value ([2]; day 60) was “No changes in CRHR1” and the “GR immunolabeling in CA3” value ([2]; day 60) was “no changes in GR”. The “average vesicle area per rat, difference to vehicle” value [3, 5] was 55%, the “average vesicle volume per rat, difference to vehicle” value [3, 5] was 68% and the “total weight of endometriosis vesicles (sum per rat), less than vehicle control (size decrease)” value [3, 5] was 67%. The “decrease in the number of developed endometriosis vesicles” value ([3]; 20 mg/kg i.p. days 1-7 after surgery, vs vehicle) was 30% and the “vesicle classification by grade (1-5, length scale)” value ([3]; vs vehicle treated control) was “a larger percentage of endometriosis vesicles that disappeared, as well as a reduced percentage of vesicles of grade 3 and 5”.
